Measurements reported in patent publication US11198713B2, “Agents modulating beta-catenin functions and methods thereof” (FOG PHARMACEUTICALS, INC., priority 2017, dated 2021).
Numbered stars: 1 amine (or outer) side, 2 acyl side, 3 side chain; on linkers, the order of the positions; unused ones are H or OH. Bridge positions count the residues as written; N and C are the ends. Square brackets hold non-standard residues; d marks the D form. Primed or numbered codes have the meaning given here. Peptide text beside a SMILES is read from it. MB(10) = Monomer B = PyrS, pyrrolidine stapling residue with allyl carbamate, (S)-3-amino-1-(allyloxycarbonyl)pyrrolidine-3-carboxylic acid, C=CCOC(=O)N1CC[C@@](N[*:1])(C(=O)[*:2])C1; 3Aminoazetidine3carboxyl = O=C(C1(N[*:1])CN([*:3])C1)[*:2]; dαMeOrn(Me) = CN(CCC[C@@](C)(N[*:1])C(=O)[*:2])[*:3]; X2 = O=C(OCC=CCOC(=O)[*:2])[*:1]; R8 = C=CCCCCCC[C@@](C)(N)C(=O)O

T1: full-length beta-catenin (Axin site) (Homo sapiens, UniProt P35222)
T1 construct: 15 nM full-length beta-catenin, 20 nM FITC labeled peptide in buffer
T1 sequence (P35222 1-781): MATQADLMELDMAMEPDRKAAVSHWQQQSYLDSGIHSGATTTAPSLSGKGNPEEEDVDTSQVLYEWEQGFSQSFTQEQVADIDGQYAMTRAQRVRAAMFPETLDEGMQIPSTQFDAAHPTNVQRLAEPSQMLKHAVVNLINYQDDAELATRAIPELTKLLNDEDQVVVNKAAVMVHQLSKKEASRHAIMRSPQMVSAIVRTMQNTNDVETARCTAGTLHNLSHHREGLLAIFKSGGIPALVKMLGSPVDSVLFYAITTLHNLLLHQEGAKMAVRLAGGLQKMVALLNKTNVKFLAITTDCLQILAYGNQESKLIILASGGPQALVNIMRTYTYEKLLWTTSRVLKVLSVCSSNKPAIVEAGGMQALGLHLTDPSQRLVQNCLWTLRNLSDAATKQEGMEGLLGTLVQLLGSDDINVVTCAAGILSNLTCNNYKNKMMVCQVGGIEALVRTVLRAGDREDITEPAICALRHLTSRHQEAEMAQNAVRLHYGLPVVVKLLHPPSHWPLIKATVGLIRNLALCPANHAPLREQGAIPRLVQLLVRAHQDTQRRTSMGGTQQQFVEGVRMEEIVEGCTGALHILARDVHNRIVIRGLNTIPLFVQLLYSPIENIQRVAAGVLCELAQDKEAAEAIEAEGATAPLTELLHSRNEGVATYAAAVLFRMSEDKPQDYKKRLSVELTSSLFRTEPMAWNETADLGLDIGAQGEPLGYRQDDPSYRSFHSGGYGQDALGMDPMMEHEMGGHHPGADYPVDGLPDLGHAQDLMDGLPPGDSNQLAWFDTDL

T2: full-length beta-catenin (UniProt P35222 2-781, limits assumed)
T2 construct: mature; also called full-length ß-Catenin; β-catenin
T2 sequence (looked up): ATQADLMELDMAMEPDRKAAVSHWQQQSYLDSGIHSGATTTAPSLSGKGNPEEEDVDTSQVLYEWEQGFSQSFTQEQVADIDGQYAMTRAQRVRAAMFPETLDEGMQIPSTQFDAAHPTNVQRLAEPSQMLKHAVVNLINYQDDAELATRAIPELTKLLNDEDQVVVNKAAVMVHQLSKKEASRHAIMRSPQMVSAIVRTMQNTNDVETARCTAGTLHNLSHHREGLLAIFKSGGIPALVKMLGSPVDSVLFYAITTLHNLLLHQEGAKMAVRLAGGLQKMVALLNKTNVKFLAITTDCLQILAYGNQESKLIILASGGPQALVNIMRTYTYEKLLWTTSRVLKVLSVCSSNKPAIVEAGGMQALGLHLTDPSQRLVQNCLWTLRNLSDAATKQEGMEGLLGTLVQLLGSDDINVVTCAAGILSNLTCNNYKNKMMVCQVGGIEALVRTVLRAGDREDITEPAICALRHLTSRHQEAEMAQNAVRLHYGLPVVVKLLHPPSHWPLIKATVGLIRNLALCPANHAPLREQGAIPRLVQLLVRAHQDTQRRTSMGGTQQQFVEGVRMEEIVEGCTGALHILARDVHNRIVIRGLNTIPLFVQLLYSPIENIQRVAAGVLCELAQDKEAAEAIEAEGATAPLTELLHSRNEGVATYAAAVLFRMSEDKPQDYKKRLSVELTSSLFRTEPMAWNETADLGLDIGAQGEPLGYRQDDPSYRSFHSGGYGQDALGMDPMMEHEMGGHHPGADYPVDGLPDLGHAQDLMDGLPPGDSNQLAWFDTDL


Key:
[1] = biological target: T1, full-length beta-catenin (Axin site); test: Competition fluorescence polarization assay (Axin site probe); format: binding; settings: competition fluorescence polarization, Table 2; read-out: in vitro FP EC50
Method in brief: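 Competition FP: 15 nM full-length β-catenin pre-incubated 5 min with 20 nM FITC-labelled stapled Axin-site peptide, then titrated peptide added (3-fold series from 5 μM) for 15 min in the dark. Buffer 50 mM Tris pH 8.0, 250 mM NaCl, 2% glycerol, 0.5 mM EDTA; duplicate reads.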

[2] = biological target: T2, full-length beta-catenin; test: competition FP; NB = no binding detected
Method: In some embodiments, a competition fluorescence polarization assay is used to assess binding of provided compounds to beta-catenin. In an exemplary procedure, solutions of provided compounds, e.g., provided stapled peptides, were prepared in a buffer (e.g., 50 mM Tris pH 8.0, 250 mM NaCl, 2% glycerol, 0.5 mM EDTA, 0.02% w/v sodium azide) using a 3-fold serial dilution from 5 µM. Probe solution (15 nM full-length ß-Catenin, 20 nM FITC labeled peptide in buffer) was prepared and incubated for a period of time, e.g., 5 minutes, and the a volume, e.g., 40 µL per well plated in suitable plate, e.g., a black polystyrene 384-well plate (Corning). Equal volume of the serial diluted peptide was added to the plate and incubated protected from light for 15 minutes prior to read. Reads were performed on a Spectramax M5 (Molecular Devices) in duplicate. Suitable probe was FITC-PEG1-PQ-S5-ILD-S5-HVRRVWR (SEQ ID NO: 1) (hydrocarbon staple formed by two S5 via olefin metathesis) and/or FITC-bA-PQ-S5-ILD-S5-HVRRVWR (SEQ ID NO: 3) (hydrocarbon staple formed by two S5 via olefin metathesis). […] Another peptide, FPO217c (Ac-AR_8ILDAHIM$B5$RVW (SEQ ID NO: 280), with N-terminal proline removed and valine replaced with isoleucine compared to FP0025c) was prepared.

| Molecule | EC50 [1] | binding result [2] |
| --- | --- | --- |
| CC[C@H](C)[C@@H]1NC(=O)[C@H](Cc2c[nH]cn2)NC(=O)[C@H](C)NC(=O)[C@H](CCS(C)(=O)=O)NC(=O)[C@H](CC(C)C)NC(=O)[C@H]([C@@H](C)CC)NC(=O)[C@](C)(NC(=O)[C@H](C)NC(C)=O)CCCCCCC=CCOC(=O)N2CC[C@@](C(=O)N[C@@H](CCCNC(=N)N)C(=O)N[C@H](C(=O)N[C@@H](Cc3c[nH]c4ccccc34)C(N)=O)C(C)C)(C2)NC1=O [FP0629c, Ac-A-R8-I-L-M2O-A-H-I-MB-R-V-W-NH2] | 500 to 5000 nM |  |
| CC[C@H](C)[C@@H]1NC(=O)[C@H](Cc2c[nH]cn2)NC(=O)[C@H](C)NC(=O)[C@H](CC(=O)O)NC(=O)[C@H](CC(C)C)NC(=O)[C@H]([C@@H](C)CC)NC(=O)[C@](C)(NC(=O)[C@H](C)NC(C)=O)CCCCCCC=CCOC(=O)N2CC[C@@](C(=O)N[C@@H](CCCNC(=N)N)C(=O)N[C@H](C(=O)N[C@@](C)(Cc3c[nH]c4ccccc34)C(N)=O)C(C)C)(C2)NC1=O [FP0631c, Ac-A-R8-I-L-D-A-H-I-MB-R-V-aMeW-NH2] | 500 to 5000 nM |  |
| CC[C@H](C)[C@@H]1NC(=O)[C@H](Cc2c[nH]cn2)NC(=O)[C@H](C)NC(=O)[C@H](CC(=O)O)NC(=O)[C@H](CC(C)C)NC(=O)[C@H]([C@@H](C)CC)NC(=O)[C@](C)(NC(=O)[C@H](C)NC(C)=O)CCCCCCC=CCOC(=O)N2CC[C@@](C(=O)N[C@@H](CCCNC(=N)N)C(=O)N[C@@](C)(CC(C)C)C(=O)N[C@@H](Cc3c[nH]c4ccccc34)C(N)=O)(C2)NC1=O [FP0633c, Ac-A-R8-I-L-D-A-H-I-MB-R-aMeL-W-NH2] | 500 to 5000 nM |  |
| CC[C@H](C)[C@@H]1NC(=O)[C@H](Cc2c[nH]cn2)NC(=O)[C@H](C)NC(=O)[C@H](CC(=O)O)NC(=O)[C@H](CC(C)C)NC(=O)[C@H]([C@@H](C)CC)NC(=O)[C@](C)(NC(=O)[C@H](C)NC(C)=O)CCCCCCC=CCOC(=O)N2CC[C@@](C(=O)N[C@@H](CCCCN)C(=O)N[C@H](C(=O)N[C@@H](Cc3c[nH]c4ccccc34)C(N)=O)C(C)C)(C2)NC1=O [FP0635c, Ac-A-R8-I-L-D-A-H-I-MB-K-V-W-NH2] | 100 to 500 nM |  |
| CC[C@H](C)[C@@H]1NC(=O)[C@H](Cc2c[nH]cn2)NC(=O)[C@H](C)NC(=O)[C@H](CC(=O)O)NC(=O)[C@H](CC(C)C)NC(=O)[C@H]([C@@H](C)CC)NC(=O)[C@](C)(NC(=O)[C@H](C)NC(C)=O)CCCCCCC=CCOC(=O)N2CC[C@@](C(=O)N[C@@H](CCCCNC)C(=O)N[C@H](C(=O)N[C@@H](Cc3c[nH]c4ccccc34)C(N)=O)C(C)C)(C2)NC1=O [FP0636c, Ac-A-R8-I-L-D-A-H-I-MB-lmeK-V-W-NH2] | 100 to 500 nM |  |
| CC[C@H](C)[C@@H]1NC(=O)[C@H](Cc2c[nH]cn2)NC(=O)[C@H](C)NC(=O)[C@H](CC(=O)O)NC(=O)[C@](C)(CC(C)C)NC(=O)[C@H]([C@@H](C)CC)NC(=O)[C@](C)(NC(=O)[C@H](C)NC(C)=O)CCCCCCC=CCOC(=O)N2CC[C@@](C(=O)N[C@@H](CCCNC(=N)N)C(=O)N[C@H](C(=O)N[C@@H](Cc3c[nH]c4ccccc34)C(N)=O)C(C)C)(C2)NC1=O [FP0644c, Ac-A-R8-I-aMeL-D-A-H-I-MB-R-V-W-NH2] | 100 to 500 nM |  |
| AXILDAHAXRVW (not fully specified; Ac-A-R8-I-L-D-A-H-A-MB-R-V-W-NH2; carbamate staple R8/MB) [FP0409c] |  | no binding |
| Ac-A[R8]ILDAFI[MB(10)]RVW-NH2 (staple 2-9) [FP0540c] |  | no binding |

Now from value to molecule:

| EC50 [1] | binding result [2] | Molecule |
| --- | --- | --- |
| 100 to 500 nM |  | CC[C@H](C)[C@@H]1NC(=O)[C@H](Cc2c[nH]cn2)NC(=O)[C@H](C)NC(=O)[C@H](CC(=O)O)NC(=O)[C@H](CC(C)C)NC(=O)[C@H]([C@@H](C)CC)NC(=O)C2(NC(=O)[C@H](C)NC(C)=O)CN(C2)C(=O)OCC=CCOC(=O)N(C)CCC[C@](C)(C(=O)N[C@@H](CCCNC(=N)N)C(=O)N[C@H](C(=O)N[C@@H](Cc2c[nH]c3ccccc23)C(N)=O)C(C)C)NC1=O [FP0625c, Ac-A-MA-I-L-D-A-H-I-MI-R-V-W-NH2] (Ac-A[3Aminoazetidine3carboxyl]ILDAHI[dαMeOrn(Me)]RVW-NH2; linker 2-9 via X2) |
| 100 to 500 nM |  | CC[C@H](C)[C@@H]1NC(=O)[C@H](Cc2c[nH]cn2)NC(=O)[C@H](C)NC(=O)[C@H](CC(=O)O)NC(=O)[C@H](CC(C)C)NC(=O)[C@H]([C@@H](C)CC)NC(=O)[C@](C)(NC(=O)[C@H](C)NC(C)=O)CCCCCCC=CCOC(=O)N2CC[C@@](C(=O)N[C@@H](CCCNC(=N)N)C(=O)N[C@H](C(=O)N[C@H](Cc3c[nH]c4ccccc34)C(N)=O)C(C)C)(C2)NC1=O [FP0630c, Ac-A-R8-I-L-D-A-H-I-MB-R-V-dW-NH2] |
| < 100 nM |  | CC[C@H](C)[C@@H]1NC(=O)[C@H](Cc2c[nH]cn2)NC(=O)[C@H](C)NC(=O)[C@H](CC(=O)O)NC(=O)[C@H](CC(C)C)NC(=O)[C@H]([C@@H](C)CC)NC(=O)[C@](C)(NC(=O)[C@H](C)NC(C)=O)CCCCCCC=CCOC(=O)N2CC[C@@](C(=O)N[C@@H](CCCCNC(=N)N)C(=O)N[C@H](C(=O)N[C@@H](Cc3c[nH]c4ccccc34)C(N)=O)C(C)C)(C2)NC1=O [FP0634c, Ac-A-R8-I-L-D-A-H-I-MB-hArg-V-W-NH2] |
| < 100 nM |  | CC[C@H](C)[C@@H]1NC(=O)[C@H](Cc2c[nH]cn2)NC(=O)[C@H](C)NC(=O)[C@H](CC(=O)O)NC(=O)[C@H](CC(C)C)NC(=O)[C@H]([C@@H](C)CC)NC(=O)[C@](C)(NC(=O)[C@H](C)NC(C)=O)CCCCCCC=CCOC(=O)N2CC[C@@](C(=O)N[C@@H](CCCNC(=N)N(C)C)C(=O)N[C@H](C(=O)N[C@@H](Cc3c[nH]c4ccccc34)C(N)=O)C(C)C)(C2)NC1=O [FP0639c, Ac-A-R8-I-L-D-A-H-I-MB-ADMA-V-W-NH2] |
| < 100 nM |  | CC[C@H](C)[C@@H]1NC(=O)[C@H](Cc2c[nH]cn2)NC(=O)[C@H](C)NC(=O)[C@H](CC(=O)O)NC(=O)[C@H](CC(C)C)NC(=O)[C@H]([C@@H](C)CC)NC(=O)[C@](C)(NC(=O)[C@H](C)NC(C)=O)CCCCCCC=CCOC(=O)N2CC[C@@](C(=O)N[C@@H](CCCNC(=NC)NC)C(=O)N[C@H](C(=O)N[C@@H](Cc3c[nH]c4ccccc34)C(N)=O)C(C)C)(C2)NC1=O [FP0640c, Ac-A-R8-I-L-D-A-H-I-MB-SDMA-V-W-NH2] |
| < 100 nM |  | CC[C@H](C)[C@@H]1NC(=O)[C@H](Cc2c[nH]cn2)NC(=O)C(C)(C)NC(=O)[C@H](CC(=O)O)NC(=O)[C@H](CC(C)C)NC(=O)[C@H]([C@@H](C)CC)NC(=O)[C@](C)(NC(=O)[C@H](C)NC(C)=O)CCCCCCC=CCOC(=O)N2CC[C@@](C(=O)N[C@@H](CCCNC(=N)N)C(=O)N[C@H](C(=O)N[C@@H](Cc3c[nH]c4ccccc34)C(N)=O)C(C)C)(C2)NC1=O [FP0645c, Ac-A-R8-I-L-D-Aib-H-I-MB-R-V-W-NH2] |
